Laboratory results taken from PMC10882719 (Frontiers in Neuroscience, 2024).
Where two headings read alike, the source gives them in different places.

How the values were obtained:
Type in all cases: cell-based
168 GPCRs [1] = target: T1, 168 GPCRs (Homo sapiens, UniProt P50391); conditions: PPYR1
T1 construct: host or cells: PathHunter cell lines

168 GPCRs [2] = target: T2, 168 GPCRs (Homo sapiens, UniProt P55085)
T2 construct: host or cells: PathHunter cell lines
T2 sequence (P55085 26-397): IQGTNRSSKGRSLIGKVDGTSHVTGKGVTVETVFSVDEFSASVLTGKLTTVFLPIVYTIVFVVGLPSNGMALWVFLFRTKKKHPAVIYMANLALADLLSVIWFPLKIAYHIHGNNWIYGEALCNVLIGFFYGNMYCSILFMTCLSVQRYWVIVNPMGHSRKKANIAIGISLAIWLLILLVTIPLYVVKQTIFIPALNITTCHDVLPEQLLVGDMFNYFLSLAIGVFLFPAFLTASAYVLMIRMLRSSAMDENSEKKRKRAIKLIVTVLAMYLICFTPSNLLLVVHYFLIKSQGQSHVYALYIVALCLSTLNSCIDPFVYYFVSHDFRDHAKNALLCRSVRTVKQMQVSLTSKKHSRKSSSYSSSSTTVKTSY

168 GPCRs [3] = target: T3, 168 GPCRs (Homo sapiens, UniProt Q99500)
T3 construct: host or cells: PathHunter cell lines

168 GPCRs [4] = target: T4, 168 GPCRs (Homo sapiens, UniProt P08172)
T4 construct: host or cells: PathHunter cell lines
T4 sequence (P08172 1-466): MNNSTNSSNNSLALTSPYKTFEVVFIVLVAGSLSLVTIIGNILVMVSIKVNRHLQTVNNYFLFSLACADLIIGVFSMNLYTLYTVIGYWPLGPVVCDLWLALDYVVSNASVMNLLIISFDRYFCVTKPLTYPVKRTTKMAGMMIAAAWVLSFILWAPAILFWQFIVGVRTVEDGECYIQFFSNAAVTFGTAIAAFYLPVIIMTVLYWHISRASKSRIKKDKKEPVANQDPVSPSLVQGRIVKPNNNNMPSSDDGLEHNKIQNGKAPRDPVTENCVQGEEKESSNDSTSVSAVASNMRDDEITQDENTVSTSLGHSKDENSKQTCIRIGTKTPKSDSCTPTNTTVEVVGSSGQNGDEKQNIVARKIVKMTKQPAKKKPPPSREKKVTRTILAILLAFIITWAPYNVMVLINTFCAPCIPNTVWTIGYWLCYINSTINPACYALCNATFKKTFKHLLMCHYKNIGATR

168 GPCRs [5] = target: T5, 168 GPCRs (Homo sapiens, UniProt Q8TDS4); conditions: GPR109A
T5 construct: host or cells: PathHunter cell lines

168 GPCRs [6] = target: T6, 168 GPCRs (Homo sapiens, UniProt P34998)
T6 construct: host or cells: PathHunter cell lines
T6 sequence (P34998 24-415): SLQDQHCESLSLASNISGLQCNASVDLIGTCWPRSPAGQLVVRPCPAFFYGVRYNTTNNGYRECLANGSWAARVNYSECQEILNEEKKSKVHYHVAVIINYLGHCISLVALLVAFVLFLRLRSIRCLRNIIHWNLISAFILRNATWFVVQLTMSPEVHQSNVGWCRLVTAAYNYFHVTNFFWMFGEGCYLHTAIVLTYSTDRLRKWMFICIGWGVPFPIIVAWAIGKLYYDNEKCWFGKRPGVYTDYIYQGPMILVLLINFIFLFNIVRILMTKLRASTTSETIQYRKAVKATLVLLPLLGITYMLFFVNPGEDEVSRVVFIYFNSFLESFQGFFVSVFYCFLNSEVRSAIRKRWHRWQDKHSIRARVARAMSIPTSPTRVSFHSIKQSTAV

168 GPCRs [7] = target: T7, 168 GPCRs (Homo sapiens, UniProt P25025)
T7 construct: host or cells: PathHunter cell lines
T7 sequence (P25025 1-360): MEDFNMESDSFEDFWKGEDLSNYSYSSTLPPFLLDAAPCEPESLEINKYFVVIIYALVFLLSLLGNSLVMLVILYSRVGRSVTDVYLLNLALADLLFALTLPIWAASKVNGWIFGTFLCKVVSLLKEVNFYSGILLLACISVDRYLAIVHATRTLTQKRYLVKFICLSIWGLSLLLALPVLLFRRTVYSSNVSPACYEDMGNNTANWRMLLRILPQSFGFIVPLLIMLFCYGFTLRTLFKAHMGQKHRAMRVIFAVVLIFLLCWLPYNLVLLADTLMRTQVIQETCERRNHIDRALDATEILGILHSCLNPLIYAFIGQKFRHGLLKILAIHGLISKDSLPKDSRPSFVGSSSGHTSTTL

T3 sequence (Q99500 whole entry): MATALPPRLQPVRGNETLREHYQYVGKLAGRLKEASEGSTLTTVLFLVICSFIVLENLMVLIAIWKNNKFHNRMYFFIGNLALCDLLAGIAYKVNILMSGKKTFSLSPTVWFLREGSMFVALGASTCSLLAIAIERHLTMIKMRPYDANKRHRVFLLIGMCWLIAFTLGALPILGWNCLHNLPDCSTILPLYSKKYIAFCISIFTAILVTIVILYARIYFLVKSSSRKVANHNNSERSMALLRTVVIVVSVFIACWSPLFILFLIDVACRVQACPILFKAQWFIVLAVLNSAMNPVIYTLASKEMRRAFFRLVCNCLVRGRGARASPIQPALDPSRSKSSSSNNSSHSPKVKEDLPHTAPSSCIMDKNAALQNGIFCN
T5 sequence (Q8TDS4 whole entry): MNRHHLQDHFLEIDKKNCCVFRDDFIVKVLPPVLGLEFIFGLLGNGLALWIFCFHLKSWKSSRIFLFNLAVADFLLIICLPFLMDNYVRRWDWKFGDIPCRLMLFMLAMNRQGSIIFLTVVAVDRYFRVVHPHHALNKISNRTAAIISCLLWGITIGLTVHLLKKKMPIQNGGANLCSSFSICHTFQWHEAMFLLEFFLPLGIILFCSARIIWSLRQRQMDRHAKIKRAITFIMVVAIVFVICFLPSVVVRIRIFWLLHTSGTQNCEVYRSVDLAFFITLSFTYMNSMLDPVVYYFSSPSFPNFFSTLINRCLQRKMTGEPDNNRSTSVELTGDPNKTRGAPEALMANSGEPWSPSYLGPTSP
T1 sequence (P50391 whole entry): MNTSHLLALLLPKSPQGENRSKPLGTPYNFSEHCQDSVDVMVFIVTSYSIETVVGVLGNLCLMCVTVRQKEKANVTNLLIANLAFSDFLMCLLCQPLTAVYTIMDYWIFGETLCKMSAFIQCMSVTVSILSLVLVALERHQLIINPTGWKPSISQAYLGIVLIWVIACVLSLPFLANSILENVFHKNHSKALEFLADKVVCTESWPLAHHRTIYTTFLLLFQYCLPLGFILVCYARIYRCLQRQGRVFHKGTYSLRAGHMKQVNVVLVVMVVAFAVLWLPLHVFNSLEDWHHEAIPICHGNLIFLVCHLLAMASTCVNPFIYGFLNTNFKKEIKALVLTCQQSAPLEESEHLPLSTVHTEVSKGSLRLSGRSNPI

SMILES	% Agonist Activity (168 GPCRs [1]; Conc 1 uM) [%]	% Antagonist Activity (168 GPCRs [1]; Conc 1 uM) [%]	% Agonist Activity (168 GPCRs [1]; Conc 10 uM) [%]	% Antagonist Activity (168 GPCRs [1]; Conc 10 uM) [%]	% Agonist Activity (168 GPCRs [2]; F2RL1, 1 uM) [%]	% Antagonist Activity (168 GPCRs [2]; F2RL1, 1 uM) [%]	% Agonist Activity (168 GPCRs [2]; F2RL1, 10 uM) [%]	% Antagonist Activity (168 GPCRs [2]; F2RL1, 10 uM) [%]	% Agonist Activity (168 GPCRs [3]; EDG3, 1 uM) [%]	% Antagonist Activity (168 GPCRs [3]; EDG3, 1 uM) [%]	% Agonist Activity (168 GPCRs [3]; EDG3, 10 uM) [%]	% Antagonist Activity (168 GPCRs [3]; EDG3, 10 uM) [%]	% Agonist Activity (168 GPCRs [4]; CHRM2, 1 uM) [%]	% Antagonist Activity (168 GPCRs [4]; CHRM2, 1 uM) [%]	% Agonist Activity (168 GPCRs [4]; CHRM2, 10 uM) [%]	% Antagonist Activity (168 GPCRs [4]; CHRM2, 10 uM) [%]	% Agonist Activity (168 GPCRs [5]; 1 uM) [%]	% Antagonist Activity (168 GPCRs [5]; 1 uM) [%]	% Agonist Activity (168 GPCRs [5]; 10 uM) [%]	% Antagonist Activity (168 GPCRs [5]; 10 uM) [%]	further results
CNC(C)Cc1ccc2c(c1)OCO2 (centres unmarked) [MDMA, 3,4-Methylenedioxy methamphetamine, reference compound]	0.3	5.9	0.9	6.9	16.4	9.6	1.8	10.9	-1.7	8.8	-1.1	11	0.9	-1	1.4	10.5	-2.1	3.7	0.4	1	% Agonist Activity (168 GPCRs [6]; CRHR1, 1 uM): 0.7%; % Antagonist Activity (168 GPCRs [6]; CRHR1, 1 uM): -1.7%; % Agonist Activity (168 GPCRs [6]; CRHR1, 10 uM): 0.2%; % Antagonist Activity (168 GPCRs [6]; CRHR1, 10 uM): 0.2%; % Agonist Activity (168 GPCRs [7]; CXCR2, 1 uM): -0.9%; % Antagonist Activity (168 GPCRs [7]; CXCR2, 1 uM): 12.8%; % Agonist Activity (168 GPCRs [7]; CXCR2, 10 uM): 2.2%; % Antagonist Activity (168 GPCRs [7]; CXCR2, 10 uM): 14.6%
CNC(C)C(=O)c1ccc2c(c1)OCO2 (centres unmarked) [methylone]	-1.7	9.5	-1.2	6.5	-0.6	-26.8	3.8	-16.2	-9.4	25.8	-8.6	13.6	-0.2	-18.5	0.2	-7.4	-8.7	1.4	-4.3	-0.3	% Agonist Activity (168 GPCRs [6]; CRHR1, 1 uM): 1.4%; % Antagonist Activity (168 GPCRs [6]; CRHR1, 1 uM): 1.3%; % Agonist Activity (168 GPCRs [6]; CRHR1, 10 uM): 1.1%; % Antagonist Activity (168 GPCRs [6]; CRHR1, 10 uM): 0.6%; % Agonist Activity (168 GPCRs [7]; CXCR2, 1 uM): -0.2%; % Antagonist Activity (168 GPCRs [7]; CXCR2, 1 uM): -7.6%; % Agonist Activity (168 GPCRs [7]; CXCR2, 10 uM): -2.6%; % Antagonist Activity (168 GPCRs [7]; CXCR2, 10 uM): -1%
